Measurements from patent US20080102497A1, “ENZYMATIC HYDROLYSIS OF STARCH” (priority 2006, published 2008).
“And” between values parts separate entries of the source, which are not always exact repeats. Identical values can stand only once. Like-named read-outs stand apart in the source and are kept apart here.

Experiments:
[1] = molecular target: α-amylase from Bacillus licheniformis (Bacillus licheniformis, UniProt P06278); test: hydrolysis of raw corn starch, reducing sugar by DNSA; format: biochemical; conditions: for Relative Activity: raw corn starch, pH 5.3, 37° C., 20 min
α-amylase from Bacillus licheniformis, sequence (P06278 30-512): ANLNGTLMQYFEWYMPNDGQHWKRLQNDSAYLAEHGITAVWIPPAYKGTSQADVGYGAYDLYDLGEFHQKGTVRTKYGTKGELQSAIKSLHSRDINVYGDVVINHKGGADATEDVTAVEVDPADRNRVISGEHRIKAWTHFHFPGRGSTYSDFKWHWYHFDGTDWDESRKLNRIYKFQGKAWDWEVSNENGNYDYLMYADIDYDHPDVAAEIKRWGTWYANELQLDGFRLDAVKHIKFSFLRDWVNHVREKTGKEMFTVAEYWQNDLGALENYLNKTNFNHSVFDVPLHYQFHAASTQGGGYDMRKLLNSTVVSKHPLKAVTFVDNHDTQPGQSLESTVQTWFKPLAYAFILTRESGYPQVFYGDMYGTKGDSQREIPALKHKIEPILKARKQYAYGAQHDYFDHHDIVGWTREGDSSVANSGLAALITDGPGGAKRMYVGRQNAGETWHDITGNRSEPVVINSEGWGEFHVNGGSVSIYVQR
Protocol: Thereafter, 40 μl of each pre-incubation solution was added to 15 mg raw corn starch, and the reaction mixture incubated at 37° C. for 20 minutes. The control reaction mixture contained substrate, enzyme, and buffer but no manganese ion. The starch hydrolysis reaction was stopped by combining the reaction mixture with a solution containing DNSA and heating for 30 min at 85° C. The absorbance of the control and test samples was measured at 562 nm to monitor the amount of reducing sugar in each sample.

[2] = system: glucoamylase from Rhizopus sp.; test: effect of pre-incubation of Mn^++ with enzyme or starch on raw corn starch conversion; format: biochemical; conditions: for % conversion of the starch substrate: reaction 37° C., pH 5.3
Protocol: The glucoamylase from Rhizopus sp. Or raw corn starch substrate were pre-incubated in a sodium acetate buffer, pH 5.3, with 1.0 mM Mn^++ for 0, 20, 40, or 60 min at 22° C. The enzyme pre-incubation solutions were then combined with 15 mg raw corn starch to provide a reaction mixture that was incubated at 37° C. for 5 minutes. The starch pre-incubation solutions were combined with an enzyme solution containing the glucoamylase from Rhizopus sp and buffer to provide a reaction mixture that was incubated at 37° C. for 5 minutes or 10 minutes.

[3] = molecular target: T1, β-amylase from sweet potato (Ipomoea batatas, UniProt P10537); test: hydrolysis of raw corn starch or soluble starch; format: biochemical; conditions: for % Relative Activity: pH 5.3, 37° C., 20 min
T1 construct: purchased Sigma A-7005
T1 sequence (P10537 whole entry): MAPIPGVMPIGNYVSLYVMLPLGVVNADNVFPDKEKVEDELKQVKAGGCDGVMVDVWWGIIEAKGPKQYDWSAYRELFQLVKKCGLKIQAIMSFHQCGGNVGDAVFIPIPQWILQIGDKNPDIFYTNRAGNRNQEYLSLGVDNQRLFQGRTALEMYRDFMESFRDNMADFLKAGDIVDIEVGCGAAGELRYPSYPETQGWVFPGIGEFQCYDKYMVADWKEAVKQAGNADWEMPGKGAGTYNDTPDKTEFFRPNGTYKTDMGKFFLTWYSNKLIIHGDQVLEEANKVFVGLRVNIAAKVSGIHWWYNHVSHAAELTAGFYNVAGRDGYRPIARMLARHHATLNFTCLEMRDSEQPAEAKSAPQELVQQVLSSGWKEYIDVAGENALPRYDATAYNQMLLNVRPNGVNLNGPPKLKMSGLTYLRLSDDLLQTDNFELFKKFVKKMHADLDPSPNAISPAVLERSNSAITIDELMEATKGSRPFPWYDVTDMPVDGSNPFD
Protocol: Each of the buffered enzyme solutions was separately added to 15 mg raw corn starch or 0.6 mg soluble starch, and the reaction mixtures incubated at 37° C. for 20 minutes. The control reaction mixture contained substrate, enzyme, and buffer but no manganese ion. The starch hydrolysis reaction was stopped by combining the reaction mixture with a solution containing DNSA and heating for 30 min at 85° C. The absorbance of the control and test samples was measured at 562 nm to monitor the amount of reducing sugar in each sample.

[4] = molecular target: glucoamylase from Aspergillus Niger (Aspergillus niger, UniProt P69328); conditions: pH 5.2, 37° C., 10 min
glucoamylase from Aspergillus Niger, sequence (P69328 25-640): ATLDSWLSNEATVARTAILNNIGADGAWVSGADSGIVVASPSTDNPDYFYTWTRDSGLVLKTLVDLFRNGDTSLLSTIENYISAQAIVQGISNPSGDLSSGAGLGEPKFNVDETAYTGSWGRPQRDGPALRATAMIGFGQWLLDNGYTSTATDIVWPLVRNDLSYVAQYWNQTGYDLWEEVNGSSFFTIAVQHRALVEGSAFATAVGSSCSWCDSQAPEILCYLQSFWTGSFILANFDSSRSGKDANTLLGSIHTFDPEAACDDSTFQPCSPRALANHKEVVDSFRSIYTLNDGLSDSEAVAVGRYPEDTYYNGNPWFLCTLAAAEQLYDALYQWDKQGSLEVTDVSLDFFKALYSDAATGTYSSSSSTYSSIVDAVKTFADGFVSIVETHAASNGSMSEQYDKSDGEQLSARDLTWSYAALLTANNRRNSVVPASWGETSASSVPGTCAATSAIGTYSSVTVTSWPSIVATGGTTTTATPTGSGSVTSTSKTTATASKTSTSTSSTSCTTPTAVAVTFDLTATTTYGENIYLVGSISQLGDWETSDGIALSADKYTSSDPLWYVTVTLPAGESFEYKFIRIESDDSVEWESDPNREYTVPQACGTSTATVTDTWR
Protocol: (§1) The control reaction mixture contained enzyme, buffer, and starch but no manganese ion. The starch hydrolysis reaction was stopped by combining the reaction mixture with a solution containing DNSA and heating for 30 min at 85° C. The absorbance of the control and test samples was measured at 562 nm to monitor the amount of reducing sugar in each sample.

β-amylase from barley [5] = molecular target: T2, β-amylase from barley (Hordeum vulgare, UniProt P16098); test: hydrolysis of cooked corn starch varieties; format: biochemical; conditions: pH 5.2, 37° C., 10 min
T2 sequence (P16098 whole entry): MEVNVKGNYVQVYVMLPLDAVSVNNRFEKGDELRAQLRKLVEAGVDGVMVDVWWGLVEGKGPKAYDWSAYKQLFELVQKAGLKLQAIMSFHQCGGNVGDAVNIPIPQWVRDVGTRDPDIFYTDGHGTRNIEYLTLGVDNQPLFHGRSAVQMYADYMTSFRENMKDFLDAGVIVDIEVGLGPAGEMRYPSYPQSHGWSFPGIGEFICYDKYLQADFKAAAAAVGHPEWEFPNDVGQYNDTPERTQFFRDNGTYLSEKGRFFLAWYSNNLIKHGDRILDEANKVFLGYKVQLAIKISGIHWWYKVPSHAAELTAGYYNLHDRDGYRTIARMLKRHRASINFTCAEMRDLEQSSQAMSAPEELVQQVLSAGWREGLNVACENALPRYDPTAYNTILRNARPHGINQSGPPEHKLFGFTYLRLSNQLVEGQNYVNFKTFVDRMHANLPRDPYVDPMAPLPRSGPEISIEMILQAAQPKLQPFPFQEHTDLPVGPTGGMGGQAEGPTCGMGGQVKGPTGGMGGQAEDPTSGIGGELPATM
Protocol: as §1, with “The separate reaction mixtures were incubated at 37° C. for 10 minutes. The control” for “The control”

[6] = molecular target: α-amylase from Aspergillus oryzae (Aspergillus oryzae, UniProt P0C1B3); test: hydrolysis of cooked dent corn starch; format: biochemical; conditions: cooked dent corn starch 0.5%, pH 5.2, 37° C., 10 min
Protocol: (§2) The separate reaction mixtures were incubated at 37° C. for 10 minutes. The control reaction mixtures contained enzyme, buffer, and starch but no manganese ion. The starch hydrolysis reaction was stopped by combining the reaction mixture with a solution containing DNSA and heating for 30 min at 85° C. The absorbance of the control and test samples was measured at 562 nm to monitor the amount of reducing sugar in each sample.

[7] = molecular target: T3, α-amylase from porcine pancreas (Sus scrofa, UniProt P00690); test: hydrolysis of cooked dent corn starch; format: biochemical; conditions: cooked dent corn starch 0.5%, pH 5.2, 37° C., 10 min
T3 construct: the α-amylase from porcine pancreas; from tissue; host or cells: porcine pancreas
T3 sequence (P00690 16-511): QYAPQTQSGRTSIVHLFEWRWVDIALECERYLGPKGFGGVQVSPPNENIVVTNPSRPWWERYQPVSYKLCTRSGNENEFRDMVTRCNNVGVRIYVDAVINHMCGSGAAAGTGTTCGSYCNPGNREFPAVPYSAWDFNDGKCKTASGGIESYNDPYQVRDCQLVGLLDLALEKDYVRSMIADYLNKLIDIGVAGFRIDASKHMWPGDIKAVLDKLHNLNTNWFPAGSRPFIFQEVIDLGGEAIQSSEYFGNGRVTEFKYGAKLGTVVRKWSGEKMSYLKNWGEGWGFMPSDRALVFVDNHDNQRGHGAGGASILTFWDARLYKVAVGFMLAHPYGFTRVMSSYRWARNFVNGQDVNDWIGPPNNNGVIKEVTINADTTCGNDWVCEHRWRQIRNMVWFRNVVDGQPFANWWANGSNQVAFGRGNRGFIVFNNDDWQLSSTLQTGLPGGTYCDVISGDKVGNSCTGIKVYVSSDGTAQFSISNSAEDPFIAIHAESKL
Protocol: as §2

β-amylase from barley [8] = molecular target: T2, β-amylase from barley; test: hydrolysis of cooked dent corn starch; format: biochemical; conditions: cooked dent corn starch 0.5%, pH 5.2, 37° C., 10 min
Protocol: as §2

[9] = molecular target: T1, β-amylase from sweet potato; test: hydrolysis of cooked dent corn starch; format: biochemical; conditions: cooked dent corn starch 0.5%, pH 5.2, 37° C., 10 min
Protocol: as §2

[Mn+2] [Mn^++, manganese ions]
Relative Activity ([1]; 0.01 mM Mn^++): 93.4% | Relative Activity ([1]; 0.1 mM Mn^++): 104.6% | Relative Activity ([1]; 1 mM Mn^++): 113.8% | effect on hydrolysis of raw corn starch (in words) ([1]; summary of Table 4): enhances the hydrolysis of raw corn starch | % conversion of the starch substrate ([2]; 1.0 mM Mn^++ pre-incubated with glucoamylase 0 min at 22° C., 5 min, raw corn starch): 0.42% | % conversion of the starch substrate ([2]; 1.0 mM Mn^++ pre-incubated with glucoamylase 20 min at 22° C., 5 min, raw corn starch): 0.35% | % conversion of the starch substrate ([2]; 1.0 mM Mn^++ pre-incubated with glucoamylase 40 min at 22° C., 5 min, raw corn starch): 0.38% | % conversion of the starch substrate ([2]; 1.0 mM Mn^++ pre-incubated with glucoamylase 60 min at 22° C., 5 min, raw corn starch): 0.38% | % conversion of the starch substrate ([2]; 1.0 mM Mn^++ pre-incubated with raw corn starch 0 min at 22° C., 5 min): 0.51% | % conversion of the starch substrate ([2]; 1.0 mM Mn^++ pre-incubated with raw corn starch 0 min at 22° C., 10 min): 0.73% | % conversion of the starch substrate ([2]; 1.0 mM Mn^++ pre-incubated with raw corn starch 20 min at 22° C., 5 min): 0.48% | % conversion of the starch substrate ([2]; 1.0 mM Mn^++ pre-incubated with raw corn starch 20 min at 22° C., 10 min): 0.79% | % conversion of the starch substrate ([2]; 1.0 mM Mn^++ pre-incubated with raw corn starch 40 min at 22° C., 5 min): 0.50% | % conversion of the starch substrate ([2]; 1.0 mM Mn^++ pre-incubated with raw corn starch 40 min at 22° C., 10 min): 0.81% | % conversion of the starch substrate ([2]; 1.0 mM Mn^++ pre-incubated with raw corn starch 60 min at 22° C., 5 min): 0.58% | % conversion of the starch substrate ([2]; 1.0 mM Mn^++ pre-incubated with raw corn starch 60 min at 22° C., 10 min): 0.80% | effect of pre-incubation on activation by Mn^++ (in words) ([2]; pre-incubation of Mn^++ with enzyme or with starch, 0-60 min): does not significantly influence the activation effect | % Relative Activity ([3]; 0.01 mM Mn^++, raw corn starch): 113.9% | % Relative Activity ([3]; 0.01 mM Mn^++, soluble starch): 108.6% | % Relative Activity ([3]; 0.1 mM Mn^++, raw corn starch): 106.6% | % Relative Activity ([3]; 0.1 mM Mn^++, soluble starch): 127.1% | % Relative Activity ([3]; 1 mM Mn^++, raw corn starch): 136.5% | % Relative Activity ([3]; 1 mM Mn^++, soluble starch): 146.6% | % Relative Activity ([3]; 10 mM Mn^++, raw corn starch): 160.6% | % Relative Activity ([3]; 10 mM Mn^++, soluble starch): 176.3% | effect on hydrolysis of starch (in words) ([3]; raw corn starch and soluble starch): enhances the hydrolysis of both raw corn starch and soluble starch | Relative Activity ([4]; 0.01 mM Mn^++, cooked barley starch 0.5%): 111.1% | Relative Activity ([4]; 0.01 mM Mn^++, cooked pea starch 0.5%): 121.1% | Relative Activity ([4]; 0.01 mM Mn^++, cooked potato starch 0.5%): 112.0% | Relative Activity ([4]; 0.01 mM Mn^++, cooked rice starch 0.5%): 109.3% | Relative Activity ([4]; 0.01 mM Mn^++, cooked soluble potato starch 0.5%): 104.0% and 115.7% | Relative Activity ([4]; 0.01 mM Mn^++, cooked tapioca starch 0.5%): 109.5% | Relative Activity ([4]; 0.01 mM Mn^++, cooked wheat starch 0.5%): 111.9% | Relative Activity ([4]; 0.1 mM Mn^++, cooked barley starch 0.5%): 117.5% | Relative Activity ([4]; 0.1 mM Mn^++, cooked pea starch 0.5%): 124.0% | Relative Activity ([4]; 0.1 mM Mn^++, cooked potato starch 0.5%): 118.8% | Relative Activity ([4]; 0.1 mM Mn^++, cooked rice starch 0.5%): 129.3% | Relative Activity ([4]; 0.1 mM Mn^++, cooked soluble potato starch 0.5%): 121.0% and 130.1% | Relative Activity ([4]; 0.1 mM Mn^++, cooked tapioca starch 0.5%): 126.0% | Relative Activity ([4]; 0.1 mM Mn^++, cooked wheat starch 0.5%): 122.2% | Relative Activity ([4]; 1 mM Mn^++, cooked barley starch 0.5%): 120.4% | Relative Activity ([4]; 1 mM Mn^++, cooked pea starch 0.5%): 138.0% | Relative Activity ([4]; 1 mM Mn^++, cooked potato starch 0.5%): 138.5% | Relative Activity ([4]; 1 mM Mn^++, cooked rice starch 0.5%): 144.0% | Relative Activity ([4]; 1 mM Mn^++, cooked soluble potato starch 0.5%): 140.0% and 79.9% | Relative Activity ([4]; 1 mM Mn^++, cooked tapioca starch 0.5%): 135.7% | Relative Activity ([4]; 1 mM Mn^++, cooked wheat starch 0.5%): 142.5% | Relative Activity ([4]; 10 mM Mn^++, cooked barley starch 0.5%): 172.6% | Relative Activity ([4]; 10 mM Mn^++, cooked pea starch 0.5%): 179.8% | Relative Activity ([4]; 10 mM Mn^++, cooked potato starch 0.5%): 200.0% | Relative Activity ([4]; 10 mM Mn^++, cooked rice starch 0.5%): 209.2% | Relative Activity ([4]; 10 mM Mn^++, cooked tapioca starch 0.5%): 183.8% | Relative Activity ([4]; 10 mM Mn^++, cooked wheat starch 0.5%): 185.4% | Relative Activity (β-amylase from barley [5]; 0.01 mM Mn^++, cooked dent corn starch 0.5%): 123.5% | Relative Activity (β-amylase from barley [5]; 0.01 mM Mn^++, cooked high-amylose V corn starch 0.5%): 111.2% | Relative Activity (β-amylase from barley [5]; 0.01 mM Mn^++, cooked soluble corn starch 0.5%): 138.7% | Relative Activity (β-amylase from barley [5]; 0.01 mM Mn^++, cooked waxy corn starch 0.5%): 114.2% | Relative Activity (β-amylase from barley [5]; 0.1 mM Mn^++, cooked dent corn starch 0.5%): 135.3% | Relative Activity (β-amylase from barley [5]; 0.1 mM Mn^++, cooked high-amylose V corn starch 0.5%): 123.3% | Relative Activity (β-amylase from barley [5]; 0.1 mM Mn^++, cooked soluble corn starch 0.5%): 135.7% | Relative Activity (β-amylase from barley [5]; 0.1 mM Mn^++, cooked waxy corn starch 0.5%): 129.9% | Relative Activity (β-amylase from barley [5]; 1 mM Mn^++, cooked dent corn starch 0.5%): 149.8% | Relative Activity (β-amylase from barley [5]; 1 mM Mn^++, cooked high-amylose V corn starch 0.5%): 136.3% | Relative Activity (β-amylase from barley [5]; 1 mM Mn^++, cooked soluble corn starch 0.5%): 174.8% | Relative Activity (β-amylase from barley [5]; 1 mM Mn^++, cooked waxy corn starch 0.5%): 148.3% | Relative Activity (β-amylase from barley [5]; 10 mM Mn^++, cooked dent corn starch 0.5%): 210.1% | Relative Activity (β-amylase from barley [5]; 10 mM Mn^++, cooked high-amylose V corn starch 0.5%): 184.5% | Relative Activity (β-amylase from barley [5]; 10 mM Mn^++, cooked soluble corn starch 0.5%): 199.6% | Relative Activity (β-amylase from barley [5]; 10 mM Mn^++, cooked waxy corn starch 0.5%): 237.4% | Relative Activity ([6]; 0.01 mM Mn^++): 126.9% | Relative Activity ([6]; 0.1 mM Mn^++): 131.2% | Relative Activity ([6]; 1 mM Mn^++): 135.2% | Relative Activity ([7]; 0.01 mM Mn^++): 114.5% | Relative Activity ([7]; 0.1 mM Mn^++): 132.4% | Relative Activity ([7]; 1 mM Mn^++): 144.2% | Relative Activity ([7]; 10 mM Mn^++): 177.7% | Relative Activity (β-amylase from barley [8]; 0.01 mM Mn^++): 123.5% | Relative Activity (β-amylase from barley [8]; 0.1 mM Mn^++): 135.3% | Relative Activity (β-amylase from barley [8]; 1 mM Mn^++): 149.8% | Relative Activity (β-amylase from barley [8]; 10 mM Mn^++): 210.1% | Relative Activity ([9]; 0.01 mM Mn^++): 117.6% | Relative Activity ([9]; 0.1 mM Mn^++): 131.4% | Relative Activity ([9]; 1 mM Mn^++): 148.0% | Relative Activity ([9]; 10 mM Mn^++): 215.0%
